Measurements: patent US9365559B2, “Crystal form of Dabrafenib and preparation method of use thereof” (Hangzhou Pushai Pharmaceutical Technology Co., LTD., priority 2013, dated 2016)
Entries after “also recorded” stand apart in the source; their conditions may differ.

What was measured:
Assay type in all cases: physicochemical
[1] = Crystal form stability in oral suspension (XRPD); details: for crystal form in oral suspension: XRPD
Method: The preparation of the oral suspension containing the crystal forms of the present invention.
API (selected from Crystal Form VI of Dabrafenib of the present invention): 2 g;
Blend API (selected from Crystal Form VI of Dabrafenib of the present invention), cocklebur gum, sodium dihydrogen citrate, methylparaben, syrupus simplex and orange flavor, add water to 1,000 mL and stir the mixture uniformly. After that, divide the solution into 100 bottles with 20 mg API in each bottle.

[2] = Crystal form stability during wet granulation tablet preparation (XRPD); details: for crystal form of API after physical blending with excipients: XRPD of Sample 1 vs Sample 3, lactose, microcrystalline cellulose, polyethylene glycol 6000; for crystal form of API in the wet granulation process: XRPD of Sample 2 vs Sample 1, 50% aqueous ethanol solution
Description: The Known Crystal Form 1, the Known Crystal Form 2 and Crystal Form VI of the present invention are examined for their stability during the formulation preparation of the wet granulation process.
The preparation process of the tablet is a parallel experiment.
(1) Blend API (selected from the Known Crystal Form 1, the Known Crystal Form 2 or Crystal Form VI of the present invention), lactose (monohydrate) and microcrystalline cellulose uniformly.
(2) Make the above mixture into soft materials by using an appropriate amount of 50% aqueous ethanol solution, screen to produce the wet granules and then dry the wet granules.
(3) Granulate the dried sample, blend with polyethylene glycol 6000 uniformly and then compress into tablets.
Respectively, take XRPD tests on the following samples obtained in the formulation preparing process of the Known Crystal Form 1, the Known Crystal Form 2 and Crystal Form VI of the present invention: (Sample 1) the sample obtained by physically blending API, lactose, microcrystalline cellulose with polyethylene glycol 6000 according to the preparation formula; (Sample 2) the sample obtained by granulating with API, lactose, microcrystalline cellulose and polyethylene glycol 6000 according to the “wet granulation” process (excluding the sample obtained after the Step (3)); (Sample 3) excluding API, the sample obtained by physically blending lactose, microcrystalline cellulose with polyethylene glycol 6000 according to the preparation formula.

[3] = Crystal form stability on stirring in or exposure to water, aqueous ethanol or other solvent; details: for crystal form stability in water: in water or other water containing system(s); for crystal form stability when stirred: stirred in water or aqueous ethanol solution at room temperature or high temperature (40° C.)
[4] = Crystal form stability in capsules prepared by wet granulation (XRPD); details: for crystal form in capsules: capsules prepared by wet granulation process, XRPD
Description: The preparation of the capsules containing the crystal forms of the present invention.
3) Blend API (selected from the Known Crystal Form 1, the Known Crystal Form 2 and Crystal Form VI of the present invention), microcrystalline cellulose (avicel) and sodium carboxymethyl starch (SSG) uniformly.
4) Make the above mixture into soft materials by using an appropriate amount of 50% aqueous ethanol solution, then screen to produce the wet granules.
5) Dry the wet granules, grind and disperse uniformly and then transfer them into the capsules.

[5] = Competition test (suspension of equal amounts stirred overnight, XRPD); details: for Competition test, comparison of stability (position in the rank order): in pure water, room temperature, stirred overnight
Description: The competition test is: take equal amount of the samples, and respectively place them in isopropanol or in a mixture of water (pure water) and ethanol (wherein the volume percentage of ethanol is 0%, 20%, 50%, 80% and 100%, respectively) to form a suspension, stir it overnight at room temperature, then compare their XRPDs.

[6] = Polarized light microscopy (PLM) morphology
Description: Polarized Light Microscope (PLM) plots are collected from XP-500E polarized light microscope (by Shanghai Changfang Optical Instrument Co., Ltd). Place a small amount of powder sample on a slide glass, drip some mineral oil to disperse the powder sample, place the cover slip, then place the sample on the loading table of XP-500E polarized light microscope, choose the appropriate magnitude to observe the morphology of the sample and take pictures thereof.
(§1) The morphology comparison is obtained by PLM testing of particle shape and PSD testing of particle size.

[7] = Dynamic vapor sorption (DVS) hygroscopicity; details: from DVS, 20~80% RH
Method: The dynamic vapor sorption analysis (DVS) data are collected by TA Instruments Q5000 TGA; the instrument control software is Thermal Advantage and the analysis software is Universal Analysis. Generally, take 1˜10 mg of the sample and place it in a platinum pan, and the weight changes of the sample are recorded during the course of the relative humidity changing from 0% to 80% and then to 0%. According to the specifics of the samples, different adsorption and desorption steps may be used.
The hygroscopicity is obtained by DVS testing of the weight changes between 20%-80% RH.

[8] = Storage stability test (XRPD before and after storing); details: for Storage stability (crystal form by XRPD): stored 3 months in desiccator at room temperature; for Storage stability (crystal form by XRPD) / Storage stability (crystal form): room temperature-97% RH, -75% RH, -44% RH or oven of 40° C.; for Storage stability (crystal form): stored for a long time in desiccator at room temperature
Description: The storage stability test is: storing the sample under constant conditions (i.e. constant humidity or constant temperature) for a certain time, and then comparing the XRPDs before and after storing.

[9] = Particle size distribution (PSD), laser diffraction; details: for D10 / D50: dispersant water with 2% tween-80
Description: The particle size distribution (PSD) plot is obtained using Microtrac S3500 laser diffraction particle size analyzer. The method parameters are as follows: flow velocity of the dispersant is 50%; the dispersant is water (added with 2% tween-80); the sample refractivity is 1.58; the laser source wavelength is 780 nm; and the integral mode is volume.
as §1

[10] = Thermogravimetric analysis (TGA), thermal stability; details: for decomposition temperature: TGA, 10° C./min, dry N2; for stability at high temperature (in words): conclusion from DSC/TGA test results
Method: The thermogravimetric analysis (TGA) data are collected by TA Instruments Q500 TGA; the instrument control software is Thermal Advantage and the analysis software is Universal Analysis. Generally, take 5˜15 mg sample and place it in a platinum pan, adopt the segmental high-resolution testing mode, and under the protection of 50 mL/min dry N2, heat the sample from room temperature to 300° C. at the heating rate of 10° C./min, the weight changes of the sample during the course are recorded by TA software simultaneously.

[11] = Crystal form stability during wet granulation tablet preparation (XRPD); details: tablet prepared by wet granulation, stored 6 months at 40° C./75% RH
[12] = Flowability observed during the experiments

SMILES	crystal form in oral suspension [1]	crystal form of API after physical blending with excipients [2]	crystal form of API in the wet granulation process [2]	crystal form stability in the wet granulation process or in the suspension [2]	crystal form stability in water [3]	crystal form stability when stirred [3]	crystal form in capsules [4]	Competition test, comparison of stability (position in the rank order) [5]	Morphology (particle shape) [6]	hygroscopicity (in words) [7]	Storage stability (crystal form by XRPD) [8]	Storage stability (crystal form) [8]	D10 [9]	D50 [9]	decomposition temperature [10]	stability at high temperature (in words) [10]	other results
CC(C)(C)c1nc(-c2cccc(NS(=O)(=O)c3c(F)cccc3F)c2F)c(-c2ccnc(N)n2)s1 [Known Crystal Form 2, N-[3-[5-(2-aminopyrimidin-4-yl)-2-(tert-butyl)thiazo-4-lyl]-2-fluorophenyl]-2,6-difluorobenzenesulfonamide, reference compound]	unstable and has converted to Crystal Form VI of the present invention	keeps unchanged	partially or totally converted to Crystal Form VI of the present invention	unstable	would convert to other form(s)	convert to Crystal Form VI of the present invention; also recorded: unstable	unstable and has converted to Crystal Form VI of the present invention	invention >The Known Crystal Form 2	small block-shaped crystals								crystal form conversion in dichloromethane ([3]; stirring in dichloromethane followed by filtering and drying): can convert to the Known Crystal Form 1
CC(C)(C)c1nc(-c2cccc(NS(=O)(=O)c3c(F)cccc3F)c2F)c(-c2ccnc(N)n2)s1 [Known Crystal Form 1, N-{3-[5-(2-amino-4-pyrimidinyl)-2-(1,1-dimethylethyl)-1,3-thiazol-4-yl]-2-fluorophenyl}-2,6-difluorobenzenesulfonamide, reference compound]	unstable and has converted to Crystal Form VI of the present invention	keeps unchanged	partially or totally converted to Crystal Form VI of the present invention	unstable	readily converts to other form(s)	convert to Crystal Form VI of the present invention; also recorded: unstable	unstable and has converted to Crystal Form VI of the present invention	>Crystal Form VII of the present	small block-shaped crystals	some hygroscopicity							Competition test, comparison of stability ([5]; in isopropanol or ethanol): Form 1 >The other three crystal forms.
CC(C)(C)c1nc(-c2cccc(NS(=O)(=O)c3c(F)cccc3F)c2F)c(-c2ccnc(N)n2)s1 [Crystal Form VI, N-[3-[5-(2-aminopyrimidin-4-yl)-2-(tert-butyl)thiazo-4-lyl]-2-fluorophenyl]-2,6-difluorobenzenesulfonamide]	stable	keeps unchanged	stable; also recorded: more stable than the Known Crystal Form 1 and the Known Crystal Form 2	keeps its form unchanged		keeps its form unchanged	stable	>The Known Crystal Form 1	fine crystals; also recorded: Fine particles	not hygroscopic; also recorded: low hygroscopicity; also recorded: lower than that of the Known Crystal Form 1	its crystal form did not change	stable when stored for a long time	7 μm	18 μm	271 °C	very stable at high temperature	crystal form in oral suspension on storage ([1]; oral suspension stored 6 months at 40° C./75% RH): still stable; crystal form stability after tableting ([2]; tablet): stable after tableting; stability of tablet on storage [11]: still stable; crystal form in capsules on storage ([4]; capsules stored 6 months at 40° C./75% RH): still stable
CC(C)(C)c1nc(-c2cccc(NS(=O)(=O)c3c(F)cccc3F)c2F)c(-c2ccnc(N)n2)s1 [Crystal Form VII, N-[3-[5-(2-aminopyrimidin-4-yl)-2-(tert-butyl)thiazo-4-lyl]-2-fluorophenyl]-2,6-difluorobenzenesulfonamide]						convert to Crystal Form VI of the present invention		more stable than the Known Crystal Form 1; also recorded: >The Known Crystal Form 2	rod-shaped crystals; also recorded: good morphology; also recorded: rod-shaped particles in large size; also recorded: Rod shape	low hygroscopicity; also recorded: lower than that of the Known Crystal Form 1	its crystal form does not change	stable when stored for a long time	91 μm	207 μm	270 °C	very stable at high temperature	particle size compared with known crystal forms [9]: larger particle size than those of the Known Crystal Form 1 and the Known Crystal Form 2; also recorded: larger than that of the Known Crystal Form 1 and the Known Crystal Form 2; flowability [12]: good and good flowability
CC(C)(C)c1nc(-c2cccc(NS(=O)(=O)c3c(F)cccc3F)c2F)c(-c2ccnc(N)n2)s1 [Known Crystal Form 3, N-[3-[5-(2-aminopyrimidin-4-yl)-2-(tert-butyl)thiazo-4-lyl]-2-fluorophenyl]-2,6-difluorobenzenesulfonamide, reference compound]					may convert to other form(s)												crystal form stability on standing ([8]; placed at room temperature): extremely unstable; also recorded: can convert to the Known Crystal Form 1; also recorded: converts to the Known Crystal Form 1
